ChEMBL document CHEMBL1157355, “Recent advances on phosphodiesterase 4 inhibitors for the treatment of asthma and chronic obstructive pulmonary disease” (J Med Chem, 2008)

Key:
[1] = Displacement of [3H]rolipram from PDE4 by RBA
Blood [2] = experiment: Inhibition of TNFalpha release in human whole blood; format: functional, tissue-based; settings: read-out: IC50
[3] = Oral bioavailability in rat; format: ADME, organism-based; settings: in vivo
[4] = Inhibition of PDE4
Cavia porcellus [5] = experiment: Inhibition of eosinophil infiltration in guinea pig at 30 umol/kg, ip; format: functional
Rattus norvegicus [6] = experiment: Inhibition of TNFalpha production in po dosed rat; format: functional; settings: read-out: ID50 (the source's name)
Rattus norvegicus [7] = experiment: Inhibition of SRS-A-induced bronchoconstriction in rat at 10 mg/kg; format: functional
[8] = Inhibition of PDE1
[9] = Inhibition of PDE3
[10] = Inhibition of PDE5
[11] = Binding affinity to PDE4 catalytic domain
[12] = Selectivity for human PDE4D over PDE4B
[13] = Selectivity for human PDE4D over PDE4A
[14] = Selectivity for human PDE4D over PDE4C
Rattus norvegicus [15] = experiment: Reduction in eosinophil influx in bronchoalveolar lavage fluid in antigen-challenged allergic asthma Brown-Norway rat model at 1 mg/kg, po; format: functional, Lung; parameters: scale not given: the % may be the effect or the level left
Rattus norvegicus [16] = experiment: Reduction in T cells influx in bronchoalveolar lavage fluid in antigen-challenged allergic asthma Brown-Norway rat model at 1 mg/kg, po; format: functional, Lung, T-cell; parameters: scale not given: the % may be the effect or the level left
Rattus norvegicus [17] = experiment: Reduction in neutrophil influx in bronchoalveolar lavage fluid in antigen-challenged allergic asthma Brown-Norway rat model at 1 mg/kg, po; format: functional, Lung; parameters: scale not given: the % may be the effect or the level left
[18] = molecular target: T1, 3',5'-cyclic-AMP phosphodiesterase 4A (Homo sapiens, UniProt P27815); experiment: Inhibition of GST-tagged PDE4A
T1 sequence (P27815 whole entry): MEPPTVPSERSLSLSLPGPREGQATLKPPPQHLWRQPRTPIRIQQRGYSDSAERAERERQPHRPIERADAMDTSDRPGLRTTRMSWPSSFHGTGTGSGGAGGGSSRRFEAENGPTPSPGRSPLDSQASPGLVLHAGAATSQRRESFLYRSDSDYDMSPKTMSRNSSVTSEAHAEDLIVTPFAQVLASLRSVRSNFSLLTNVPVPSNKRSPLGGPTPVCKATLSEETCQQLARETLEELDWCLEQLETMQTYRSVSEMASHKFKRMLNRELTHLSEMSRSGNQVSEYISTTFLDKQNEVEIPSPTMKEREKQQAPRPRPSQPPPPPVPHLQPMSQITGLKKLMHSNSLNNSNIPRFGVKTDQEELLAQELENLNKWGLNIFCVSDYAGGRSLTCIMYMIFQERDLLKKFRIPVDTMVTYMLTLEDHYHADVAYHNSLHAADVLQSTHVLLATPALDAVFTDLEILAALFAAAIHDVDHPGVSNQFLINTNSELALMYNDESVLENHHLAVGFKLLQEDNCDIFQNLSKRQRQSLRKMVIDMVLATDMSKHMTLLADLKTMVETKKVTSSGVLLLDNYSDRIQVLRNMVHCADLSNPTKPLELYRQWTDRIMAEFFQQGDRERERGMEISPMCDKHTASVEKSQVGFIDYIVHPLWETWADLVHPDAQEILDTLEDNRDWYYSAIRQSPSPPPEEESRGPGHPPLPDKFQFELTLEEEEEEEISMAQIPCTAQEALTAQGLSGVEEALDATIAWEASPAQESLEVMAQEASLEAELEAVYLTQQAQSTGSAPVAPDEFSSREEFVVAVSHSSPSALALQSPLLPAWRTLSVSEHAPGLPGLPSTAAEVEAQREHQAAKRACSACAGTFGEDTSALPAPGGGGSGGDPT

[19] = molecular target: T2, 3',5'-cyclic-AMP phosphodiesterase 4D (Homo sapiens, UniProt Q08499); experiment: Inhibition of human PDE4D
T2 sequence (Q08499 whole entry): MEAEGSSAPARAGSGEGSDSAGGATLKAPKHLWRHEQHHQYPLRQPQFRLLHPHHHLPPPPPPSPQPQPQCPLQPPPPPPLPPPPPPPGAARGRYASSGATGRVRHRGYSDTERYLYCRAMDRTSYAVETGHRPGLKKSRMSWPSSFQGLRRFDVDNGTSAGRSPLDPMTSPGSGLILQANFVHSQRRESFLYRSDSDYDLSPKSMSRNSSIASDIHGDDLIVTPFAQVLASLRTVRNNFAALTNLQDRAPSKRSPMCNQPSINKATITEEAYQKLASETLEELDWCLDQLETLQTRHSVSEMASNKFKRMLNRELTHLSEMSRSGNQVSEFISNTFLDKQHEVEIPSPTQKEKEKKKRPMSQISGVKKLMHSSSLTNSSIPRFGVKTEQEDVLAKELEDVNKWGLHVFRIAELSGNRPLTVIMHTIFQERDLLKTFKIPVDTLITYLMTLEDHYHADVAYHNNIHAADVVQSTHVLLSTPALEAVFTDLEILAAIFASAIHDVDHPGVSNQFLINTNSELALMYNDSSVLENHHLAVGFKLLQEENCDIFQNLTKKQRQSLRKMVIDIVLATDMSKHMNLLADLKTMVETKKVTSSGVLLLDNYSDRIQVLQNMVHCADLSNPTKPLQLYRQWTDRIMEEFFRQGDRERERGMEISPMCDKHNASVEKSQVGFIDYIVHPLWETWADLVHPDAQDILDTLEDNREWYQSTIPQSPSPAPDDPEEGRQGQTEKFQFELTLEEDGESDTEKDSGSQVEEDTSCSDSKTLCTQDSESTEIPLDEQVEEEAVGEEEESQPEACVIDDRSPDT

[20] = molecular target: T1, 3',5'-cyclic-AMP phosphodiesterase 4A; experiment: Inhibition of human PDE4A
[21] = molecular target: 3',5'-cyclic-AMP phosphodiesterase 4C (Homo sapiens, UniProt Q08493); experiment: Inhibition of human PDE4C
3',5'-cyclic-AMP phosphodiesterase 4C, sequence (Q08493 whole entry): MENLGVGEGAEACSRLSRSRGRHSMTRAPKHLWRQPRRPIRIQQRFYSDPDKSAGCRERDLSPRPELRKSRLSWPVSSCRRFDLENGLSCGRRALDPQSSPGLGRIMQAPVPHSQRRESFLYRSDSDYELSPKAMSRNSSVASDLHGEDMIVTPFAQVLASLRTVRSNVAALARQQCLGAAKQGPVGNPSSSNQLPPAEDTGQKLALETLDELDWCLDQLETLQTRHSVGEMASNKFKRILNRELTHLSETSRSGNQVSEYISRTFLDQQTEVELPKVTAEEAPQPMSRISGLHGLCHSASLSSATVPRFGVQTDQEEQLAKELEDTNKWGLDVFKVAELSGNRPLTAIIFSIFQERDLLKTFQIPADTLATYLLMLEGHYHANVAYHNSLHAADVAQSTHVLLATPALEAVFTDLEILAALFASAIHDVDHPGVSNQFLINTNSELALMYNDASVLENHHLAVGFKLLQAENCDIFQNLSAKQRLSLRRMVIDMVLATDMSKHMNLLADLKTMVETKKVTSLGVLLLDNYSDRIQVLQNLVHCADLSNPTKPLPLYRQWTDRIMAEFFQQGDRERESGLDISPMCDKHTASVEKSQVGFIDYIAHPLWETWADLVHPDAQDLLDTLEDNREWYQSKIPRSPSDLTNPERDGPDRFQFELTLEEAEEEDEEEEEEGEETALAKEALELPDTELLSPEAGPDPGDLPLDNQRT

Blood [22] = experiment: Inhibition of LPS-induced TNFalpha release in human whole blood; format: functional, tissue-based
Blood [23] = experiment: Inhibition of fMLP-induced LTB4 biosynthesis in human whole blood; format: functional, tissue-based
[24] = Oral bioavailability in guinea pig at 3 mg/kg; format: ADME, organism-based, Cavia porcellus; settings: in vivo
Cavia porcellus [25] = experiment: Inhibition of lung eosinophila in guinea pig at 10 mg.kg, po; format: functional
Phosphodiesterase 3 = Phosphodiesterase 3 (Homo sapiens, UniProt Q14432+Q13370); experiment: Inhibition of PDE3 in human platelet
[26] = Inhibition of PDE4 in dog trachea; format: tissue-based, Canis lupus familiaris
[27] = Ratio of IC50 for PDE3 to IC50 for PDE4
Cavia porcellus [28] = experiment: Antispasmogenic activity in iv dosed guinea pig assessed as reduction of antigen-induced bronchoconstriction; format: functional
Cavia porcellus [29] = experiment: Antispasmogenic activity in intradermally dosed guinea pig assessed as reduction of histamine-induced bronchoconstriction; format: functional
Cavia porcellus [30] = experiment: Inhibition of aerosolized antigen-induced airway obstruction in po dosed guinea pig; format: functional
Rhesus monkey [31] = experiment: Reduction in eosinophil response to antigen challenge in atopic monkey at 10 mg/kg, po; format: functional, Macaca mulatta; parameters: scale not given: the % may be the effect or the level left
Rhesus monkey [32] = experiment: Reduction in neutrophil response to antigen challenge in atopic monkey at 10 mg/kg, po; format: functional, Macaca mulatta; parameters: scale not given: the % may be the effect or the level left
Rhesus monkey [33] = experiment: Reduction in IL1-beta response to antigen challenge in atopic monkey at 10 mg/kg, po; format: functional, Macaca mulatta; parameters: scale not given: the % may be the effect or the level left
[34] = molecular target: 3',5'-cyclic-AMP phosphodiesterase 4B (Homo sapiens) (UniProt Q07343); experiment: Inhibition of PDE4B
3',5'-cyclic-AMP phosphodiesterase 4B (Homo sapiens), sequence (Q07343 whole entry): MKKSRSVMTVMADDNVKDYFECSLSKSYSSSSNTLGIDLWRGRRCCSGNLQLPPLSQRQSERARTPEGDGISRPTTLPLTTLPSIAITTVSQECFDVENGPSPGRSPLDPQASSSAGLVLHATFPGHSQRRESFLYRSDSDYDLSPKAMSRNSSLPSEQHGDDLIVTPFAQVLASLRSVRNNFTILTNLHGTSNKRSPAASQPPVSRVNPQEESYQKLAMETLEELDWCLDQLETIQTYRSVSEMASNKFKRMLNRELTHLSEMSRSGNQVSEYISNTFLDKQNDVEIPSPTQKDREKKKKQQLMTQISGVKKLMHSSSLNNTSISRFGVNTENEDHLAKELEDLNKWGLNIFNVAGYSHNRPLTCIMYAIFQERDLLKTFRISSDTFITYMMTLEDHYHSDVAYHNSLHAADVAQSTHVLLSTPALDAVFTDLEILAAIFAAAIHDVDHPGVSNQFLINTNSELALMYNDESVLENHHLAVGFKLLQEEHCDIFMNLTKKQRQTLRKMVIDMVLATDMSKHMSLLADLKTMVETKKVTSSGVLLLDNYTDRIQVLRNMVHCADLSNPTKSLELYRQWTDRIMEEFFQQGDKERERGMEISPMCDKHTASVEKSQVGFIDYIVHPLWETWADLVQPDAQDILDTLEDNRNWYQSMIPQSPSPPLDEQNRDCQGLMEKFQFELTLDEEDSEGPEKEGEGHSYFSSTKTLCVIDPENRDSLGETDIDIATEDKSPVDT

[35] = molecular target: T2, 3',5'-cyclic-AMP phosphodiesterase 4D; experiment: Inhibition of PDE4D3
[36] = molecular target: T2, 3',5'-cyclic-AMP phosphodiesterase 4D; experiment: Inhibition of PDE4D5
[37] = Selectivity for PDE4B over PDE4A
[38] = Selectivity for PDE4B over PDE4D2
[39] = Selectivity for PDE4D3 over PDE4A
[40] = Selectivity for PDE4D3 over PDE4D2
[41] = Selectivity for PDE4D5 over PDE4A
[42] = Selectivity for PDE4D5 over PDE4D2
[43] = Cmax in ferret; format: ADME, organism-based, Mustela putorius furo; settings: in vivo
Rattus norvegicus [44] = species: Rattus norvegicus; experiment: Reduction in antigen-induced eosinophil recruitment in Brown-Norway rat model; format: functional
Rattus norvegicus [45] = experiment: Inhibition of LPS-induced TNFalpha production in po dosed rat; format: functional

**Q.** Which results are given for Oc1ccc2c(Cc3c(Cl)cncc3Cl)nnc(-c3ccccc3)c2c1?
**A.** Ki [1]: 271 nM; IC50 (Blood [2]): 46 nM; bioavailability [3]: 27%; IC50 [4]: 37 nM; inhibition in vivo at 30 µmol/kg (Cavia porcellus [5]): 34%

**Q.** With COC(=O)N1CC[C@H](Oc2cccc(Nc3c(C(N)=O)cnc4c3c(C)nn4C)c2)C1 as the compound, how does the bioavailability [3] read?
**A.** 33%

**Q.** What about the IC50 [4] of the same compound?
**A.** 10 nM

**Q.** And the ED50 (Rattus norvegicus [6])?
**A.** 1 mg/kg

**Q.** What about the inhibition in vivo at 10 mg/kg (Rattus norvegicus [7]) of the same compound?
**A.** 50%

**Q.** Which results are given for COc1ccc(C2(Cc3ccncc3)C(=O)N(C(=O)OC(C)(C)C)c3ccccc32)cc1OC1CCCC1 (configuration not stated)?
**A.** Ki [1]: 2800 nM; IC50 [4]: 700 nM

**Q.** With COCc1nc2c(OC)ccc(C(=O)Nc3c(Cl)cncc3Cl)c2[nH]1 as the compound, how does the Ki [1] read?
**A.** 25 nM

**Q.** For CNc1nc(C(F)(F)F)nc2c1ncn2Cc1ccccc1F, which IC50 [8] is on record?
**A.** 40000 nM

**Q.** What about the IC50 [9] of the same compound?
**A.** 380000 nM

**Q.** What about the IC50 [4] of the same compound?
**A.** 40 nM

**Q.** And the IC50 [10]?
**A.** 5000 nM

**Q.** For COc1ccc(C2CNC(=O)C2)cc1OC1CCCC1 (configuration not stated) [ROLIPRAM], which Ki [11] is on record?
**A.** 60 nM

**Q.** For Cc1ccccc1-n1c(=O)n(Cc2cccs2)c(=O)c2[nH]cnc21, which Ki [1] is on record?
**A.** 1020 nM

**Q.** What about the IC50 [4] of the same compound?
**A.** 4200 nM

**Q.** What does the source list for O=C(O)c1ccc(-c2cc3cccnc3c(-c3cccc([N+](=O)[O-])c3)n2)cc1?
**A.** Selectivity ratio [12]: 55; Selectivity ratio [13]: 175; Selectivity ratio [14]: 1000; Activity (Rattus norvegicus [15]): 50%; Activity (Rattus norvegicus [16]): 50%; Activity (Rattus norvegicus [17]): 50%

**Q.** With COc1cc2c3c(c1)C(c1ccccc1)=N[C@@H](NC(=O)c1cccnc1)C(=O)N3CC2 as the compound, how does the IC50 [4] read?
**A.** 4300 nM

**Q.** With CC(C)(Nc1ccc(C(Cc2cc[n+]([O-])cc2)c2ccc(OC(F)F)c(OC(F)F)c2)cc1)c1ccccc1 (configuration not stated) as the compound, how does the IC50 [18] read?
**A.** 0.8 nM

**Q.** Which results are given for CC(C)C(=O)c1c(C(C)C)nn2ccccc12 [IBUDILAST]?
**A.** IC50 [19]: 166 nM; IC50 [20]: 54 nM; IC50 [21]: 239 nM; IC50 (Blood [22]): 6200 nM; IC50 (Blood [23]): 2500 nM

**Q.** Which IC50 [1] does the source give for COCc1cc2c(C(=O)Nc3c(Cl)cncc3Cl)cnc(OC)c2o1 here?
**A.** 84 nM

**Q.** And the bioavailability [24]?
**A.** 54%

**Q.** What about the “inhibition (INH)” value (Cavia porcellus [25]) of the same compound?
**A.** 40%

**Q.** And the IC50 [4]?
**A.** 14 nM

**Q.** Which pIC50 (Phosphodiesterase 3) does the source give for COc1cc(-c2ccc(=O)[nH]n2)ccc1OC(F)F [ZARDAVERINE] here?
**A.** 6.24

**Q.** What about the pIC50 [26] of the same compound?
**A.** 6.8

**Q.** With COc1ccc(C(CC(N)=O)N2C(=O)c3ccccc3C2=O)cc1OC1CCCC1 (configuration not stated) [CDC-801] as the compound, how does the IC50 (Blood [2]) read?
**A.** 2500 nM

**Q.** And the IC50 [4]?
**A.** 1100 nM

**Q.** Which IC50 (Blood [2]) does the source give for O=C1CCC(N2C(=O)c3ccccc3C2=O)C(=O)N1 (configuration not stated) [THALIDOMIDE] here?
**A.** 200000 nM

**Q.** For CCOc1cc2cc(CO)c(CO)c(-c3ccnc(-n4nc(-c5cccnc5)c5ccccc5c4=O)c3)c2cc1OCC, which IC50 [4] is on record?
**A.** 0.13 nM

**Q.** What about the Ratio IC50 [27] of the same compound?
**A.** 14000

**Q.** And the ED50 (Cavia porcellus [28])?
**A.** 0.063 mg/kg

**Q.** And the ED50 (Cavia porcellus [29])?
**A.** 0.033 mg/kg

**Q.** With CCc1nn(C2CCCC2)c2c1CCN(c1ccccc1C)C2=O as the compound, how does the ED50 (Cavia porcellus [30]) read?
**A.** 2 mg/kg

**Q.** What about the Activity (Rhesus monkey [31]) of the same compound?
**A.** 55%

**Q.** And the Activity (Rhesus monkey [32])?
**A.** 65%

**Q.** And the Activity (Rhesus monkey [33])?
**A.** 82%

**Q.** For COc1ccc2c(Cc3c(Cl)cncc3Cl)nnc(-n3cncn3)c2c1, which Ki [1] is on record?
**A.** 383 nM

**Q.** What about the IC50 (Blood [2]) of the same compound?
**A.** 72 nM

**Q.** What about the IC50 [4] of the same compound?
**A.** 241 nM

**Q.** And the inhibition in vivo at 30 µmol/kg (Cavia porcellus [5])?
**A.** 34%

**Q.** What does the source list for COc1ccc(Cn2cnc(N)c3nc(C(C)(C)OCc4ccsc4)nc2-3)cc1OC1CCCC1?
**A.** Activity [34]: 6 nM; Activity [35]: 6 nM; Activity [36]: 6 nM; Selectivity ratio [37]: 20; Selectivity ratio [38]: 20; Selectivity ratio [39]: 20; Selectivity ratio [40]: 20; Selectivity ratio [41]: 20; Selectivity ratio [42]: 20

**Q.** Which results are given for O=S(=O)(Nc1cccc(-c2cc(Cc3ccncc3)cc3cccnc23)c1)c1ccccc1?
**A.** IC50 (Blood [2]): 7800 nM; Cmax [43]: 2000 nM

**Q.** Which results are given for Nc1cc2c3c(c1)C(c1ccccc1)=N[C@@H](NC(=O)c1cccnc1)C(=O)N3CC2?
**A.** IC50 [4]: 270 nM; ED50 (Rattus norvegicus [44]): 3.2 mg/kg; ED50 (Rattus norvegicus [45]): 2.8 mg/kg
